This note sets out measurements from publication PMC10400562, “Label-free measurement of antimicrobial peptide interactions with lipid vesicles and nanodiscs using microscale thermophoresis” (Scientific Reports, 2023).

Non-standard residues stand in square brackets, D forms with d. Residues, ends and D or L forms follow the SMILES beside them.

Data set [1] can be described thus: Label-free MST, peptide binding to 100 nm vesicles. Particulars: 2500 nM AMP; for Kd: label-free MST (Trp fluorescence), lipid 0–1.5 mM, 10 mM TRIS pH 7.4 100 mM NaCl, mean ± SD of triplicates, '>' = minimum value; for Vesicle KP, DMPC (MST) / Vesicle KP, DMPC/PG (MST): partition coefficient from initial fluorescence on MST instrument, TRIS pH 7.4, ± SD of triplicate fits, judged unreliable by authors; for Vesicle KP, DMPC (MST): hyperbolic fit after removal of deviant points; for Vesicle KP, DMPC/PG (MST): hyperbolic fit. An excerpt:
For KD evaluation by MST, FHot was registered during the temperature related intensity change (TRIC) phase of the MST trace (see “Methods”). The advantage of evaluating KD during the TRIC phase is that any potential effects of prolonged heating on the thermostability of the sample that may influence the binding can be avoided. The dose–response profile of MST response against lipid concentration for 1–5 largely follows a sigmoidal curve shape (Fig. 3A,B).
DMPC and DMPC:5% DMPG vesicles were prepared by solubilising a known weight of lipid in chloroform with a small amount of methanol to assist in the dissolution of the PG lipid head groups. The chloroform stock was dried in vacuo to produce a lipid film, which was further dried for additional 3 h. The lipid film was solubilised in 10 mM TRIS buffer (pH 7.4) containing 100 mM NaCl to yield a 20 mM milky lipid stock.
To produce the working vesicle stock, 1 mL of vesicle stock was extruded 20 times through a 0.1 µm filter using an Avanti Lipids mini-extruder. Vesicle size was confirmed using a Malvern Zetasizer Nano ZS (Malvern Panalytical Ltd, Malvern, United Kingdom).
(§1) All MST measurements were conducted on a NanoTemper Monolith NT. Labelfree instrument, using Monolith NT. Labelfree standard treated zero background capillaries.
(§2) A dilution series of vesicles/nanodiscs was prepared from 3 mM to 100 nM lipid concentrations, comprising 15 discrete samples, and an additional zero lipid sample, for a total of 16 lipid concentrations. Final MST samples were prepared as a combination of 25 µL lipid solution and 25 µL 5 µM peptide solution (Table S1 in the Supporting Information).
(§3) MST measurements were conducted with excitation power set to 15%, with the MST power set to high. Laser time settings were: 3 s pre-laser, 30 s on time, and 3 s after heating. FHot was taken from the T-jump period after 1.5 s and FCold taken in the second prior to IR laser activation. For the evaluation of KP, the initial fluorescence was taken as the value reported during the period before the application of the laser. The MST response and initial fluorescence were extracted directly as a text file for further processing in MATLAB.
(§4) In a typical binding experiment that yields a sigmoidal curve, the Hill equation can be fitted to yield KD:[66]6 y=y0+EMaxLipid^n/KDn+Lipid^n where y is the MST response, y0 is the MST response of the AMP in an aqueous solution (i.e., in the absence of lipids), n is the Hill coefficient, and EMax is the maximal effect of the tested substrate. The removal of outlying MST response points was necessary. Erroneous points were identified by poor MST trace shapes or higher than expected initial fluorescence that was absent in the other replicates or subsequent points, but otherwise no further treatment of data was necessary. In all instances the MST response was plotted against log lipid concentration in nM and fit to Eq. (6).
(§5) The Kp of a molecule can be determined experimentally by observing changes in fluorescent intensity in the presence of an increasing concentration of lipid, and fitting to Eq. (8)[43].8 I/Iaq=1+KpVmLipidIL/Iaq/1+KPVmLipid
(§6) In Eq. (8) the fluorescence intensity of the AMP (I) is normalised to the fluorescence intensity of the AMP in an aqueous environment (Iaq), Vm is the molar volume of the lipids and IL is the fluorescence intensity of the AMP in the lipidic environment. For Vm, the average molar volume of the lipid composition is used. In the case of the DMPC only environments it is taken as the Vm of DMPC (1.023 nm^3), and in the DMPC-DMPG mixture it is the weighted average relative to the composition used (Vm DMPG = 0.997 nm^3)[54].

A further data set has as its system E. coli ATCC 25922. The class given is cell-based. Particulars: for E. coli MIC (ATCC 25922): ATCC 25922, 24 h. The procedure:
The bacterial strains used were E. coli ATCC 25922 and S. aureus ATCC 9144. Overnight cultures and MIC assays were performed in cationic-adjusted BD BBL Mueller Hinton II Broth (MHB II, 212322, Becton, Dickson and Company, Sparks, MD, USA).
The MICs for 1–5 were determined using the CLSI M07-A9 guidelines. Working solutions were prepared in double distilled water containing max. 1% DMSO. A concentration range between 256–0.25 µg/mL was tested for each peptide. The bacterial inoculum was 1 × 10^6 cells/mL and incubated 1:1 with each test compound in a polypropylene 96-well round-bottom plate (655209, Greiner Bio-One, Kresmmuenster, Austria). Each MIC test was performed in three biological replicates, consisting of four technical replicates. Positive controls (without antibiotics) and negative controls (without bacteria) were included for each technical replicate. The reference antibiotic erythromycin was included to assure quality control. The plates were incubated for 24 h at 37 °C. The MIC value was defined as the lowest concentration of compound resulting in no visible bacterial growth.

Data set [2] can be described thus: Label-free MST, peptide binding to SMA nanodiscs. Particulars: for Kd: label-free MST, SMA nanodiscs (anionic belt), 2500 nM AMP, apparent KD dominated by interaction with SMA polymer, mean ± SD of triplicates; for SMA KP, DMPC (MST) / SMA KP, DMPC/PG (MST): partition coefficient from initial fluorescence on MST instrument, SMA nanodiscs, hyperbolic fit, ± SD of triplicate fits. The procedure:
(§7) The MST data for two nanodisc types, SMA and SMA-QA, were evaluated using the same methodology as the vesicle data, with FHot taken during the TRIC, and Fnorm plotted against log[lipid] and fit to Eq. (6).
(§8) The DMPC, and DMPC with 5% DMPG 21 mM vesicle stocks were used for the nanodisc preparation. The stocks were combined with an 8% SMA stock solution to yield a final SMA concentration of 1% for SMA nanodiscs. The stocks were combined with a 100 mg/mL SMA-QA stock to yield a final lipid:SMA-QA w/w ratio of 1:1.5. The combined SMA/SMA-QA and lipid mixture were incubated at room temperature overnight and purified by SEC. Fractions containing SMA/SMA-QA discs were concentrated using centrifugation filters. Total lipid concentration was determined by ^31P NMR (Figs. S4–S7). Nanodisc size was confirmed using a Malvern Zetasizer Nano ZS (Malvern Panalytical Ltd, Malvern, United Kingdom).
as §1, §2, §3, §4, §5, §6

Data set [3] in a line: Label-free MST, peptide binding to SMA-QA nanodiscs. Particulars: for Kd: label-free MST, SMA-QA nanodiscs (cationic belt), 2500 nM AMP, Hill fit, mean ± SD of triplicates, '>' = minimum value; for SMA-QA KP, DMPC (MST) / SMA-QA KP, DMPC/PG (MST): partition coefficient from initial fluorescence on MST instrument, SMA-QA nanodiscs, hyperbolic fit, ± SD of triplicate fits. The procedure: as §7, §8, §1, §2, §3, §4, §5, §6

Data set [4] can be described thus: Vesicle; KP from the fits. Particulars: buffer.
Another data set can be described thus: SPR; KP from the fits. Particulars: buffer. A general note: Surface plasmon resonance follows binding to a sensor surface in real time, without labels.
Setting [5] is: Hill fit of Fnorm in TRIC phase, insufficient curve sampling, read-out: Vesicle KD, DMPC (MST).
Setting [6] is: Hill fit, read-out: Vesicle KD, DMPC/PG (MST).
[7] abbreviates: read-out: SMA KD, DMPC/PG (MST).
The mark [8] stands for this setting: read-out: SMA-QA KD, DMPC (MST).
Setting [9] is: read-out: SMA-QA KD, DMPC/PG (MST).

Consider `NCCCC[C@@H]1NC(=O)[C@H](Cc2c[nH]c3ccccc23)NC(=O)[C@H](CCCCN)NC(=O)[C@H](Cc2c[nH]c3ccccc23)NC(=O)[C@H](CCCCN)NC(=O)[C@H](Cc2c[nH]c3ccccc23)NC1=O` [compound 4] (cyclo(WKWKWK)), for which the Kd in data set [1] (setting [5]) was 282 ± 58 µM; in data set [1] (setting [6]), 112 ± 29 µM; in data set [2] (read-out: SMA KD, DMPC (MST)), 8.6 ± 0.5 µM; in data set [2] (setting [7]) it was 9.8 ± 0.3 µM; in data set [3] (setting [8]) it was more than 713 µM. For the same compound, in data set [1], the “Vesicle KP, DMPC (MST)” value is listed as 8.56 ± 7.41 × 10^3. Also, the “Vesicle KP, DMPC/PG (MST)” value in data set [1] is reported as 14.90 ± 4.84 × 10^3. Further, in the data set with E. coli ATCC 25922, the “E. coli MIC (ATCC 25922)” value is 64 mg/L. Moreover, the “SMA KP, DMPC (MST)” value in data set [2] is listed as 0.70 ± 0.11 × 10^3. The “SMA KP, DMPC/PG (MST)” value in data set [2] is 1.14 ± 0.12 × 10^3. Besides, the “SMA-QA KP, DMPC (MST)” value in data set [3] is on record as 6.15 ± 6.54 × 10^3. Also, the “SMA-QA KP, DMPC/PG (MST)” value in data set [3] is on record as 3.23 ± 1.87 × 10^3. Besides, the “membrane partition coefficient KP (KP x 10^3)” value is 8.56 ± 7.41 x10^3 in data set [4] (DMPC vesicles (MST)), 14.90 ± 4.84 x10^3 in data set [4] (DMPC/PG vesicles (MST)), 0.53 ± 0.01 x10^3 in the data set “SPR; KP from the fits” (DMPC bilayer on SPR chip) and 0.63 ± 0.03 x10^3 in the data set “SPR; KP from the fits” (DMPC/PG bilayer on SPR chip).
For `CC(C)C[C@@H]1NC(=O)[C@@H](CCCNC(=N)N)NC(=O)[C@H](CCCCN)NC(=O)[C@H](CC(N)=O)NC(=O)[C@@H](Cc2c[nH]c3ccccc23)NC(=O)[C@H](Cc2c[nH]c3ccccc23)NC1=O` [compound 5] (cyclo(LW[dW]NK[dR])), the results for the Kd in data set [1] (setting [5]), in data set [1] (setting [6]) and in data set [3] (setting [9]) were more than 670 µM, more than 650 µM and more than 1000 µM, respectively. Besides, in data set [1], the “Vesicle KP, DMPC (MST)” value is 3.10 ± 2.17 × 10^3. Moreover, the “Vesicle KP, DMPC/PG (MST)” value in data set [1] is recorded as 1.47 ± 0.07 × 10^3. In the data set on E. coli ATCC 25922, the “E. coli MIC (ATCC 25922)” value was more than 256 mg/L. Also, the “antimicrobial activity against tested strain” value with E. coli ATCC 25922 (E. coli ATCC 25922, statement in text) was “inactive”. The “SMA KP, DMPC (MST)” value in data set [2] is given as 6.98 ± 1.24 × 10^3. Further, in data set [2], the “SMA KP, DMPC/PG (MST)” value is on record as 4.75 ± 0.32 × 10^3. For the same compound, the “SMA-QA KP, DMPC (MST)” value in data set [3] is given as 17.12 ± 12.90 × 10^3. In addition, the “SMA-QA KP, DMPC/PG (MST)” value in data set [3] was 3.35 ± 0.57 × 10^3. Moreover, the “membrane partition coefficient KP (KP x 10^3)” value in data set [4] (DMPC vesicles (MST)) is 3.10 ± 2.17 x10^3; in data set [4] (DMPC/PG vesicles (MST)), 1.47 ± 0.07 x10^3; in “SPR; KP from the fits” (DMPC bilayer on SPR chip), 0.28 ± 0.01 x10^3.
`N=C(N)NCCC[C@@H]1NC(=O)[C@H](CCCNC(=N)N)NC(=O)[C@H](Cc2c[nH]c3ccccc23)NC(=O)[C@H](Cc2c[nH]c3ccccc23)NC(=O)[C@H](Cc2c[nH]c3ccccc23)NC(=O)[C@H](CCCNC(=N)N)NC1=O` [compound 1] (cyclo(WWWRRR)): the Kd in data set [1] (setting [5]) amounted to 21 ± 3 µM; in data set [1] (setting [6]), 10 ± 5 µM; in data set [2] (read-out: SMA KD, DMPC (MST)), 1.2 ± 0.5 µM; in data set [2] (setting [7]), 2.2 ± 0.4 µM; in data set [3] (setting [8]), 142 ± 17 µM; in data set [3] (setting [9]), 40 ± 5 µM. In addition, the “Vesicle KP, DMPC (MST)” value in data set [1] is recorded as 7.24 ± 1.73 × 10^3. Further, the “Vesicle KP, DMPC/PG (MST)” value in data set [1] was 7.73 ± 1.58 × 10^3. Besides, the “E. coli MIC (ATCC 25922)” value in the data set on E. coli ATCC 25922 was 8 mg/L. Besides, the “SMA KP, DMPC (MST)” value in data set [2] is 10.40 ± 1.52 × 10^3. In data set [2], the “SMA KP, DMPC/PG (MST)” value was 10.27 ± 2.13 × 10^3. In addition, the “SMA-QA KP, DMPC (MST)” value in data set [3] was 7.07 ± 1.78 × 10^3. Also, the “SMA-QA KP, DMPC/PG (MST)” value in data set [3] is reported as 7.63 ± 1.89 × 10^3. For the same compound, the “membrane partition coefficient KP (KP x 10^3)” value is listed as 7.24 ± 1.73 x10^3 in data set [4] (DMPC vesicles (MST)), 7.73 ± 1.58 x10^3 in data set [4] (DMPC/PG vesicles (MST)), 6.65 ± 0.80 x10^3 in the data set “SPR; KP from the fits” (DMPC bilayer on SPR chip) and 12.71 ± 0.16 x10^3 in the data set “SPR; KP from the fits” (DMPC/PG bilayer on SPR chip).
